These are literature values, as cited in patent US9687454B2, “Sublingual and buccal film compositions” (Indivior UK Limited, priority 2009, dated 2017).

The conditions of this data set: known value.

Regarding `C=CCN1CC[C@]23c4c5ccc(O)c4O[C@H]2C(=O)CC[C@@]3(O)[C@H]1C5` [naloxone], the pKa result is reported as “about 7.94”.
